System: NMDAR dependant hippocampal LTP
Test: NMDAR dependant LTP (fEPSP amplitude) induced by weak tetanus, recorded on hippocampal brain slices in vitro with MEA
Format: cell-based, mice
Details: mouse hippocampal slices, 10 stimulations at 100 Hz for 0.1 seconds

Compound	effect on NMDAR dependant hippocampal LTP induced by weak tetanic stimulation (10 micromolar (μM))	effect on NMDAR dependant hippocampal LTP induced by weak tetanic stimulation (20 micromolar (μM))	effect on NMDAR dependant hippocampal LTP induced by weak tetanic stimulation (30 micromolar (μM))	effect on NMDAR dependant hippocampal LTP induced by weak tetanic stimulation (15 micromolar)	effect on NMDAR dependant hippocampal LTP induced by weak tetanic stimulation (40 micromolar)	effect on NMDAR dependant hippocampal LTP induced by weak tetanic stimulation (50 micromolar)
CCCCCCCC/C=C\CCCCCCCC(=O)OCC [oleic acid (ethyl ester), Oleic acid ethyl ester]	did not produce any effect	significantly enhanced	significantly enhanced	–	–	–
C[N+](C)(C)CCO.[Cl-] [choline chloride, Choline chloride]	did not produce any effect	did not produce any effect	significantly enhanced	did not produce any effect	significantly enhanced	significantly enhanced

Reference: patent US20160136192A1, “METHODS AND COMPOSITIONS FOR ENHANCING COGNITIVE PERFORMANCE” (ABBOTT LABORATORIES, priority 2013, published 2016)
